In ChEMBL document CHEMBL1136247, “Alpha-keto amides as inhibitors of histone deacetylase” (Bioorg Med Chem Lett, 2003):

Tests used:
[1] = tested on: MDA-MB-435; assay: Compound was tested for inhibition of proliferation of MDA-435 cells; assay type: functional, cell-based; settings: Homo sapiens
[2] = tested on: HT-1080; assay: Compound was tested for inhibition of proliferation of HT1080 cells; assay type: functional, cell-based; settings: Homo sapiens
[3] = target: Histone deacetylase (HDAC1 and HDAC2) (Homo sapiens, UniProt Q13547+Q92769); assay: Inhibitory activity against mixture of histone deacetylase 1 (HDAC1) and histone deacetylase 2 (HDAC2) from nuclear extraction of K562 erythroleukemia cells.

Compound | IC50 [1] | IC50 [2] | IC50 [3]
CNC(=O)C(=O)CCCCCCS(=O)(=O)c1ccc(-c2ccccc2)cc1 |  |  | 143 nM
CNC(=O)C(=O)CCCCCCC(=O)Nc1ccc2ccccc2c1 | 22000 nM | 17000 nM | 9.4 nM
CNC(=O)C(=O)CCCCCCC(=O)Nc1ccc(-c2ccccc2)cc1 |  |  | 201 nM
CCNC(=O)C(=O)CCCCCCOc1ccc(-c2ccccc2)cc1 |  |  | 4.9 nM
COC(=O)C(=O)CCCCCOc1ccc(-c2ccccc2)cc1 |  |  | 0.082 nM
CN(C)C(=O)C(=O)CCCCCCOc1ccc(-c2ccccc2)cc1 |  |  | > 5 nM
COC(=O)C(=O)CCCCCCOc1ccc(-c2ccccc2)cc1 |  |  | 0.062 nM
CNC(=O)C(=O)CCCCCCC(=O)Nc1nc(-c2ccc3c(c2)CCCC3)cs1 | > 50000 nM | > 50000 nM | 1.4 nM
CNC(=O)C(=O)CCCCCCC(=O)Nc1cnc2ccccc2c1 | 4000 nM | 2900 nM | 9.5 nM
CNC(=O)C(=O)CCCCCCNC(=O)c1cccc(-c2ccccc2)c1 |  |  | 21 nM
CN(C)CCNC(=O)C(=O)CCCCCCOc1ccc(-c2ccccc2)cc1 |  |  | > 50 nM
CNC(=O)C(=O)CCCCCCC(=O)Nc1nc(-c2ccc(OC)cc2)cs1 | 5800 nM | 2700 nM | 9.1 nM
CNC(=O)C(=O)CCCCCCOc1ccc(-c2ccccc2)cc1 |  |  | 0.11 nM
CNC(=O)C(=O)CCCCCCC(=O)Nc1nc2ccccc2s1 | 14000 nM | 13000 nM | 133 nM
COC(=O)C(=O)CCCCCCCOc1ccc(-c2ccccc2)cc1 |  |  | 0.109 nM
CNC(=O)C(=O)CCCCCCSc1ccc(-c2ccccc2)cc1 |  |  | 526 nM

Other lines, results leading:

IC50 [1] | IC50 [2] | IC50 [3] | Compound
2000 nM | 670 nM |  | CNC(=O)C(=O)CCCCCCC(=O)Nc1nc(-c2ccncc2)cs1
 |  | > 10000 nM | CNC(=O)C(=O)COCCCCOc1ccc(-c2ccccc2)cc1
3100 nM | 1200 nM | 11 nM | CNC(=O)C(=O)CCCCCCC(=O)Nc1nc(-c2ccccc2)cs1
 |  | > 50 nM | NC(=O)C(=O)CCCCCCOc1ccc(-c2ccccc2)cc1
 |  | 3.7 nM | O=C(O)C(=O)CCCCCCOc1ccc(-c2ccccc2)cc1
 |  | 853 nM | CNC(=O)C(=O)CCCCCO/N=C\c1ccc(-c2ccccc2)cc1
160 nM | 120 nM | 3.1 nM | CNC(=O)C(=O)CCCCCCC(=O)Nc1nc(-c2ccc(CCN(C)C)cc2)cs1
4500 nM | 3400 nM | 18 nM | CNC(=O)C(=O)CCCCCCC(=O)Nc1ccc2cc[nH]c2c1
 |  | > 50 nM | O=C(O)CNC(=O)C(=O)CCCCCCOc1ccc(-c2ccccc2)cc1
 |  | 3.7 nM | CNC(=O)C(=O)CCCCCCC(=O)Nc1cccc(-c2ccccc2)c1
 |  | 338 nM | CNC(=O)C(=O)CCCCCCC(=O)Nc1ccccc1
 |  | > 1000 nM | CNC(=O)C(=O)C#CCCCCOc1ccc(-c2ccccc2)cc1
39000 nM | 35000 nM | 1041 nM | CNC(=O)C(=O)CCCCCCC(=O)Nc1cccc(Oc2ccccc2)c1
 |  | 241 nM | CNC(=O)C(=O)CCCCCCNS(=O)(=O)c1ccc(-c2ccccc2)cc1
